These results are taken from patent publication US6852719B2, “Glucocorticoid receptor modulators” (Pfizer Inc., priority 2000, dated 2005).

Experiment [1] deals with IL-8 production in SW1353 human chondrosarcoma cells. In words: glucocorticoid inhibition of IL-1 induced IL-8 production in human chondrosarcoma cells. In kind it is cell-based. The following applies: 20 ng/ml IL-1 beta, 24 hours after IL-1 addition, ELISA, read-out: IC50, inhibition of IL-8 expression. On the procedure: (§1) This assay, the glucocorticoid inhibition of IL-1 (Interleukin-1) induced MMP-1 (Matrix Metalloproteinase-1) and IL-8 (Interleukin-8) production in human chondrosarcoma cells, is conducted as follows: SW1353 human chondrosarcoma cells (obtained from ATCC) from passage 12 through passage 19 are used in a 96 well format assay. Cells are plated at confluence into 96 well plates in DMEM (Dulbecco's Modified Eagle Medium) with 10% fetal bovine serum and incubated at 37° C., 5% CO2. After 24 hours, serum containing media is removed and replaced with 200 ul/well DMEM containing 1 mg/L insulin, 2 g/L lactalbumin hydrosylate, and 0.5 mg/L ascorbic acid and returned to incubation at 37° C., 5% CO2. […] IL-8 production is assessed using the Quantikine human IL-8 ELISA kit from R & D Systems (D8050) on samples diluted 60-fold in RD5P Calibrator Diluent, following the manufacturer's protocol. The percent of the average IL-1 control is determined for the average of each of the triplicate samples following subtraction of the average signal from untreated cells. IC50's are determined from log linear plots of the percent of control versus the concentration of inhibitor. […] MMP-1 production is assessed via the Bio-Trak MMP-1 ELISA kit from Amersham (RPN2610) on 100 ul of neat sample following the manufacturer's protocol. […]
(An ELISA detects its analyte on a solid surface through an enzyme-linked reagent.)

In experiment [2] the test system is MMP-1 production in SW1353 human chondrosarcoma cells. The experiment in a line: glucocorticoid inhibition of IL-1 induced MMP-1 production in human chondrosarcoma cells. In kind it is cell-based. Conditions: 20 ng/ml IL-1 beta, 72 hours after IL-1 addition, ELISA, read-out: IC50, inhibition of MMP1 expression. On the procedure:
as §1

For the compound `C[C@@H]1C[C@H]2[C@@H]3CCC4=CC(=O)C=C[C@]4(C)[C@@]3(F)[C@@H](O)C[C@]2(C)[C@@]1(O)C(=O)CO` [Dexamethasone, (11β, 16α)-9-fluoro-11,17,21-trihydroxy-16-methylpregna-1,4-diene-3,20-dione], the IC50 in experiment [1] and in experiment [2] was 5 nM throughout.
